Measured values published in paper PMC7343746, “(2S, 4R)-4-[^18F]Fluoroglutamine for In vivo PET Imaging of Glioma Xenografts in Mice: an Evaluation of Multiple Pharmacokinetic Models” (Molecular Imaging and Biology, 2020).

Tests used:
rat BT4C glioma cells [1] = assay: Yokoi plot, subcutaneous model; assay type: in vivo, Foxn1^nu/nu mouse; conditions: Neck tumor average (n = 6); PC input
Protocol: (§1) Image analysis was performed using CARIMAS software published and freely distributed by the Turku PET Center (http://turkupetcentre.fi/carimas/). CT scans were used as rough anatomical reference while tumor regions of interest (ROI) were hand-drawn based upon observed spikes of radioactivity in the PET images at locations correlating with recorded tumor grafts. Control muscle ROIs were drawn on the side opposite to the tumor in the leg flank muscle (based on CT) while the blood ROI was drawn based upon heart anatomical location and observed PET image radioactivity spike during the initial 20 s of imaging in the left ventricle. Standardized uptake values (SUV) were calculated with respect to ROI volume, mean and max tumor radioactivity, total injected radioactivity dose (corrected for tail, cannula, and syringe residual radioactivity), and animal weight, and were additionally presented as tumor-to-background ratio (TBR, tumor-to-healthy brain region for intracranial gliomas and tumor-to-muscle for subcutaneous gliomas) as defined by recent glioma research literature standards. Mean and maximum TBR values were reported as ROI radioactivity per volume divided by mean background radioactivity per volume. The blood radioactivity SUV and gender-specific metabolite-corrected blood radioactivity SUV were then applied to multiple pharmacokinetic models to characterize the flux of the tracer (further described in the “Modeling” section).
(§2) Using the heart’s left ventricle ROI from the PET data as an uncorrected radioactivity level input and the bioavailable parent-tracer fraction (results: Eqs. 3 and 4 applied to the uncorrected input) as the corrected input, multiple models were investigated to characterize the tissue uptake dynamics. Two-compartment modeling and Logan, Patlak, and Yokoi plots were used to separately model the pharmacokinetics for the gliomas (both subcutaneous and orthotopic loci) and their respective control tissues (healthy muscle and healthy brain, respectively). Where indicated, means plus/minus standard deviations are reported. Difference in parameters for uncorrected versus correct and target tissue versus their respective control regions were tested with students’ paired t tests with P values lower than 0.05 being considered significant.

rat BT4C glioma cells [2] = assay: 2-Compartment model, subcutaneous model; assay type: in vivo, Foxn1^nu/nu mouse
Protocol: as §1, §2

[3] = Bone (femoral condyle) average (n = 6), arterial blood input
[4] = Bone (femoral condyle) average (n=6), plasma-corrected input
[5] = Flank muscle average (n = 6), arterial blood input
[6] = Flank muscle average (n=6), plasma-corrected input
[7] = Flank tumor average (n = 6), arterial blood input
[8] = Flank tumor average (n=6), plasma-corrected input
[9] = Neck tumor average (n = 6), arterial blood input
[10] = Neck tumor average (n=6), plasma-corrected input

Question: Which “Yokoi K1/k2 (PC) binding potential” value (rat BT4C glioma cells [1]) does the source give for NC(=O)[C@H]([18F])C[C@H](N)C(=O)O [[^18F]FGln, (2S, 4R)-4-[^18F]fluoroglutamine] here?
Answer: The value was 2.08 ± 0.13 mL mL-1.

Question: And the “Yokoi k2 (PC) tissue to plasma transport rate” value (rat BT4C glioma cells [1])?
Answer: The value was 0.065 ± 0.016 min⁻¹.

Question: And the “2-Compartment K1” value (rat BT4C glioma cells [2]; [3])?
Answer: Its value is 0.309 ± 0.179 mL min-1 mL-1.

Question: What about the “2-Compartment K1/k2” value (rat BT4C glioma cells [2]; [3]) of the same compound?
Answer: The value was 0.745 ± 0.194 mL mL-1.

Question: What about the 2-Compartment Vb (rat BT4C glioma cells [2]; [3]) of the same compound?
Answer: Its 2-Compartment Vb is 5.45 ± 2.53%.

Question: What about the “2-Compartment k3” value (rat BT4C glioma cells [2]; [3]) of the same compound?
Answer: Its value is 0.075 ± 0.034 min⁻¹.

Question: What about the “2-Compartment k3*K1/k2” value (rat BT4C glioma cells [2]; [3]) of the same compound?
Answer: The value was 0.052 ± 0.017.

Question: What about the “2-Compartment k3/(k2+k3)” value (rat BT4C glioma cells [2]; [3]) of the same compound?
Answer: The value was 0.171 ± 0.083.

Question: What about the “2-Compartment K1” value (rat BT4C glioma cells [2]; [4]) of the same compound?
Answer: Its value is 0.402 ± 0.206 mL min-1 mL-1.

Question: What about the “2-Compartment K1/k2” value (rat BT4C glioma cells [2]; [4]) of the same compound?
Answer: The value was 0.649 ± 0.191 mL mL-1.

Question: What about the 2-Compartment Vb (rat BT4C glioma cells [2]; [4]) of the same compound?
Answer: Its 2-Compartment Vb is 3.21 ± 3.57%.

Question: What about the “2-Compartment k3” value (rat BT4C glioma cells [2]; [4]) of the same compound?
Answer: Its value is 0.148 ± 0.063 min⁻¹.

Question: What about the “2-Compartment k3*K1/k2” value (rat BT4C glioma cells [2]; [4]) of the same compound?
Answer: The value was 0.086 ± 0.024.

Question: And the “2-Compartment k3/(k2+k3)” value (rat BT4C glioma cells [2]; [4])?
Answer: Its value is 0.198 ± 0.079.

Question: And the “2-Compartment K1” value (rat BT4C glioma cells [2]; [5])?
Answer: Its value is 0.079 ± 0.027 mL min-1 mL-1.

Question: What about the “2-Compartment K1/k2” value (rat BT4C glioma cells [2]; [5]) of the same compound?
Answer: Its value is 0.564 ± 0.130 mL mL-1.

Question: And the 2-Compartment Vb (rat BT4C glioma cells [2]; [5])?
Answer: The 2-Compartment Vb was 2.33 ± 1.07%.

Question: And the “2-Compartment k3” value (rat BT4C glioma cells [2]; [5])?
Answer: Its value is 0.009 ± 0.005 min⁻¹.

Question: What about the “2-Compartment k3*K1/k2” value (rat BT4C glioma cells [2]; [5]) of the same compound?
Answer: Its value is 0.005 ± 0.002.

Question: And the “2-Compartment k3/(k2+k3)” value (rat BT4C glioma cells [2]; [5])?
Answer: The value was 0.061 ± 0.038.

Question: What about the “2-Compartment K1” value (rat BT4C glioma cells [2]; [6]) of the same compound?
Answer: The value was 0.081 ± 0.027 mL min-1 mL-1.

Question: What about the “2-Compartment K1/k2” value (rat BT4C glioma cells [2]; [6]) of the same compound?
Answer: The value was 0.797 ± 0.163 mL mL-1.

Question: What about the 2-Compartment Vb (rat BT4C glioma cells [2]; [6]) of the same compound?
Answer: Its 2-Compartment Vb is 2.8 ± 1.12%.

Question: What about the “2-Compartment k3” value (rat BT4C glioma cells [2]; [6]) of the same compound?
Answer: The value was 0.015 ± 0.005 min⁻¹.

Question: What about the “2-Compartment k3*K1/k2” value (rat BT4C glioma cells [2]; [6]) of the same compound?
Answer: Its value is 0.012 ± 0.003.

Question: And the “2-Compartment k3/(k2+k3)” value (rat BT4C glioma cells [2]; [6])?
Answer: Its value is 0.136 ± 0.055.

Question: And the “2-Compartment K1” value (rat BT4C glioma cells [2]; [7])?
Answer: The value was 0.147 ± 0.028 mL min-1 mL-1.

Question: And the “2-Compartment K1/k2” value (rat BT4C glioma cells [2]; [7])?
Answer: Its value is 0.973 ± 0.187 mL mL-1.

Question: What about the 2-Compartment Vb (rat BT4C glioma cells [2]; [7]) of the same compound?
Answer: The 2-Compartment Vb was 5.59 ± 2.78%.

Question: What about the “2-Compartment k3” value (rat BT4C glioma cells [2]; [7]) of the same compound?
Answer: The value was 0.005 ± 0.004 min⁻¹.

Question: And the “2-Compartment k3*K1/k2” value (rat BT4C glioma cells [2]; [7])?
Answer: The value was 0.004 ± 0.003.

Question: What about the “2-Compartment k3/(k2+k3)” value (rat BT4C glioma cells [2]; [7]) of the same compound?
Answer: The value was 0.028 ± 0.021.

Question: What about the “2-Compartment K1” value (rat BT4C glioma cells [2]; [8]) of the same compound?
Answer: Its value is 0.148 ± 0.027 mL min-1 mL-1.

Question: And the “2-Compartment K1/k2” value (rat BT4C glioma cells [2]; [8])?
Answer: Its value is 1.369 ± 0.273 mL mL-1.

Question: What about the 2-Compartment Vb (rat BT4C glioma cells [2]; [8]) of the same compound?
Answer: Its 2-Compartment Vb is 6.64 ± 3.1%.

Question: What about the “2-Compartment k3” value (rat BT4C glioma cells [2]; [8]) of the same compound?
Answer: Its value is 0.010 ± 0.004 min⁻¹.

Question: What about the “2-Compartment k3*K1/k2” value (rat BT4C glioma cells [2]; [8]) of the same compound?
Answer: The value was 0.013 ± 0.003.

Question: And the “2-Compartment k3/(k2+k3)” value (rat BT4C glioma cells [2]; [8])?
Answer: The value was 0.086 ± 0.028.

Question: And the “2-Compartment K1” value (rat BT4C glioma cells [2]; [9])?
Answer: The value was 0.202 ± 0.079 mL min-1 mL-1.

Question: What about the “2-Compartment K1/k2” value (rat BT4C glioma cells [2]; [9]) of the same compound?
Answer: The value was 1.129 ± 0.141 mL mL-1.

Question: What about the 2-Compartment Vb (rat BT4C glioma cells [2]; [9]) of the same compound?
Answer: Its 2-Compartment Vb is 8.28 ± 5.95%.

Question: What about the “2-Compartment k3” value (rat BT4C glioma cells [2]; [9]) of the same compound?
Answer: Its value is 0.002 ± 0.002 min⁻¹.

Question: And the “2-Compartment k3*K1/k2” value (rat BT4C glioma cells [2]; [9])?
Answer: Its value is 0.002 ± 0.002.

Question: What about the “2-Compartment k3/(k2+k3)” value (rat BT4C glioma cells [2]; [9]) of the same compound?
Answer: The value was 0.015 ± 0.013.

Question: And the “2-Compartment K1” value (rat BT4C glioma cells [2]; [10])?
Answer: The value was 0.202 ± 0.072 mL min-1 mL-1.

Question: What about the “2-Compartment K1/k2” value (rat BT4C glioma cells [2]; [10]) of the same compound?
Answer: Its value is 1.567 ± 0.209 mL mL-1.

Question: What about the 2-Compartment Vb (rat BT4C glioma cells [2]; [10]) of the same compound?
Answer: The 2-Compartment Vb was 9.79 ± 6.85%.

Question: And the “2-Compartment k3” value (rat BT4C glioma cells [2]; [10])?
Answer: The value was 0.008 ± 0.002 min⁻¹.

Question: What about the “2-Compartment k3*K1/k2” value (rat BT4C glioma cells [2]; [10]) of the same compound?
Answer: Its value is 0.013 ± 0.002.

Question: And the “2-Compartment k3/(k2+k3)” value (rat BT4C glioma cells [2]; [10])?
Answer: Its value is 0.065 ± 0.026.
